Values joined by “and” are separate entries in the source; they are usually repeats but may differ in a detail not shown here. Identical values can stand only once.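 Growth conditions: 96-well plates. Treatment: test compound, 48 hours, 5 concentrations. Analysis: linear interpolation between bracketing concentrations; unreached endpoints set to highest concentration. Abbreviation: GI50, concentration required for 50% inhibition of growth.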 Active and inactive are the calls of the source. No stated cut-off is given here; in the data, active = GI50 up to about 1.1 µM and inactive = higher.
Experiments:
Test in all cases: NCI-60 cell line screen, 48 h
786-0 = test system: 786-0
BT-549 = test system: BT-549
COLO 205 = test system: COLO 205
HCT-116 = test system: HCT-116
HCT-15 = test system: HCT-15
HL-60 = test system: HL-60
HOP-62 = test system: HOP-62
HT-29 = test system: HT-29
Hs-578T = test system: Hs-578T
IGROV-1 = test system: IGROV-1
LOX IMVI = test system: LOX IMVI
M14 = test system: M14
MDA-MB-231 = test system: MDA-MB-231
MDA-MB-435 = test system: MDA-MB-435
MDA-N = test system: MDA-N
Malme-3M = test system: Malme-3M
NCI-H23 = test system: NCI-H23
NCI-H522 = test system: NCI-H522
OVCAR-3 = test system: OVCAR-3
OVCAR-4 = test system: OVCAR-4
PC-3 = test system: PC-3
RXF 393 = test system: RXF 393
SF-268 = test system: SF-268
SF-539 = test system: SF-539
SK-MEL-28 = test system: SK-MEL-28
SK-MEL-2 = test system: SK-MEL-2
SK-MEL-5 = test system: SK-MEL-5
SN12C = test system: SN12C
SNB-75 = test system: SNB-75
SW-620 = test system: SW-620
T47D = test system: T47D
U-251 = test system: U-251
UACC-257 = test system: UACC-257
UO-31 = test system: UO-31
A549 = test system: A549
ACHN = test system: ACHN
CAKI-1 = test system: CAKI-1
CCRF-CEM = test system: CCRF-CEM
DU-145 = test system: DU-145
EKVX = test system: EKVX
HCC 2998 = test system: HCC 2998
HOP-92 = test system: HOP-92
K562 = test system: K562
KM12 = test system: KM12
MCF7 = test system: MCF7
MOLT-4 = test system: MOLT-4
NCI-H460 = test system: NCI-H460
NCI/ADR-RES = test system: NCI/ADR-RES
OVCAR-5 = test system: OVCAR-5
OVCAR-8 = test system: OVCAR-8
RPMI-8226 = test system: RPMI-8226
SF-295 = test system: SF-295
SK-OV-3 = test system: SK-OV-3
SNB-19 = test system: SNB-19
SR = test system: SR
UACC-62 = test system: UACC-62

For `CN1C=c2c3c(ccc2=C2C=CC4C=C5OCOC5=CC4=C21)OCO3` (stereo not drawn), the GI50 (786-0) was 1.66 µM (inactive) and 1.31 µM (inactive), the GI50 (BT-549) was 2.15 µM (inactive) and 1.58 µM (inactive) and the GI50 (COLO 205) was 1.89 µM (inactive) and 1.4 µM (inactive). For the same molecule, the GI50 (HCT-116) was 1.66 µM (inactive) and 1.02 µM (active), the GI50 (HCT-15) was 1.41 µM and 1.7 µM and the GI50 (HL-60) was 285 nM (active) and 170 nM (active). For the same molecule, the GI50 (HOP-62) was 2.28 µM (inactive) and 1.55 µM (inactive), the GI50 (HT-29) was 2.07 µM (inactive) and 1.62 µM (inactive) and the GI50 (Hs-578T) was 1.9 µM (inactive) and 2.65 µM (inactive). For the same molecule, the GI50 (IGROV-1) was 1.99 µM (inactive) and 1.65 µM (inactive), the GI50 (LOX IMVI) was 1.8 µM (inactive) and 1.6 µM (inactive) and the GI50 (M14) was 1.21 µM (inactive) and 1.73 µM (inactive). The GI50 (MDA-MB-231) was 2 µM (inactive) and 1.22 µM (inactive), the GI50 (MDA-MB-435) was 1.06 µM (active) and 1.85 µM (inactive) and the GI50 (MDA-N) was 1.85 µM (inactive) and 1.35 µM (inactive). For the same molecule, the GI50 (Malme-3M) was 2.44 µM (inactive) and 1.6 µM (inactive), the GI50 (NCI-H23) was 1.53 µM (inactive) and 2.98 µM (inactive) and the GI50 (NCI-H522) was 1.5 µM (inactive) and 1.45 µM (inactive). The GI50 (OVCAR-3) was 871 nM (active) and 1.58 µM (inactive), the GI50 (OVCAR-4) was 1.85 µM (inactive) and 3.11 µM (inactive) and the GI50 (PC-3) was 2.96 µM (inactive) and 1.52 µM (inactive). The GI50 (RXF 393) was 1.98 µM (inactive) and 1.04 µM (active), the GI50 (SF-268) was 2.42 µM (inactive) and 1.61 µM (inactive) and the GI50 (SF-539) was 2.28 µM (inactive) and 1.71 µM (inactive). For the same molecule, the GI50 (SK-MEL-28) was 1.59 µM (inactive) and 2.89 µM (inactive), the GI50 (SK-MEL-2) was 2.69 µM (inactive) and 1.95 µM (inactive) and the GI50 (SK-MEL-5) was 2.44 µM (inactive) and 1.6 µM (inactive). The GI50 (SN12C) was 1.92 µM (inactive) and 1.56 µM (inactive), the GI50 (SNB-75) was 1.87 µM (inactive) and 3.72 µM (inactive) and the GI50 (SW-620) was 1.05 µM (active) and 1.58 µM (inactive). For the same molecule, the GI50 (T47D) was 1.75 µM (inactive) and 2.28 µM (inactive), the GI50 (U-251) was 1.57 µM (inactive) and 2.34 µM (inactive) and the GI50 (UACC-257) was 3.15 µM (inactive) and 1.76 µM (inactive). The GI50 (UO-31) was 2.1 µM (inactive) and 1.47 µM (inactive).
For `O=C1CCC(N2C(=O)c3ccccc3C2=O)C(=O)N1` (stereo not drawn) [THALIDOMIDE], the GI50 (786-0) was > 100 µM (inactive), the GI50 (A549) was > 100 µM (inactive) and the GI50 (ACHN) was > 100 µM (inactive). For the same molecule, the GI50 (BT-549) was > 100 µM (inactive), the GI50 (CAKI-1) was > 100 µM (inactive) and the GI50 (CCRF-CEM) was > 100 µM (inactive). The GI50 (COLO 205) was > 100 µM (inactive), the GI50 (DU-145) was > 100 µM (inactive) and the GI50 (EKVX) was > 100 µM (inactive). The GI50 (HCC 2998) was > 100 µM (inactive), the GI50 (HCT-116) was > 100 µM (inactive) and the GI50 (HCT-15) was greater than 100 µM. For the same molecule, the GI50 (HOP-62) was > 100 µM (inactive), the GI50 (HOP-92) was > 100 µM (inactive) and the GI50 (Hs-578T) was > 100 µM (inactive). For the same molecule, the GI50 (IGROV-1) was > 100 µM (inactive), the GI50 (K562) was > 100 µM (inactive) and the GI50 (KM12) was > 100 µM (inactive). The GI50 (M14) was > 100 µM (inactive), the GI50 (MCF7) was > 100 µM (inactive) and the GI50 (MDA-MB-435) was > 100 µM (inactive). The GI50 (MDA-N) was > 100 µM (inactive), the GI50 (MOLT-4) was > 100 µM (inactive) and the GI50 (Malme-3M) was > 100 µM (inactive). For the same molecule, the GI50 (NCI-H23) was > 100 µM (inactive), the GI50 (NCI-H460) was > 100 µM (inactive) and the GI50 (NCI-H522) was > 100 µM (inactive). The GI50 (NCI/ADR-RES) was > 100 µM (inactive), the GI50 (OVCAR-4) was > 100 µM (inactive) and the GI50 (OVCAR-5) was > 100 µM (inactive). For the same molecule, the GI50 (OVCAR-8) was > 100 µM (inactive), the GI50 (PC-3) was > 100 µM (inactive) and the GI50 (RPMI-8226) was > 100 µM (inactive). For the same molecule, the GI50 (RXF 393) was > 100 µM (inactive), the GI50 (SF-268) was > 100 µM (inactive) and the GI50 (SF-295) was > 100 µM (inactive). The GI50 (SK-MEL-2) was > 100 µM (inactive), the GI50 (SK-MEL-5) was > 100 µM (inactive) and the GI50 (SK-OV-3) was > 100 µM (inactive). The GI50 (SN12C) was > 100 µM (inactive), the GI50 (SNB-19) was > 100 µM (inactive) and the GI50 (SNB-75) was > 100 µM (inactive). For the same molecule, the GI50 (SR) was > 100 µM (inactive), the GI50 (SW-620) was > 100 µM (inactive) and the GI50 (T47D) was > 100 µM (inactive). The GI50 (U-251) was > 100 µM (inactive), the GI50 (UACC-257) was > 100 µM (inactive) and the GI50 (UACC-62) was > 100 µM (inactive). For the same molecule, the GI50 (UO-31) was > 100 µM (inactive).
